Columns and labels:
Test in all cases: relative viability (nuclei count vs DMSO), 5 days (fraction); higher = more cells survive
Bleomycin + Alpelisib = compound: CC1=C(N=C(N=C1N)[C@H](CC(=O)N)NC[C@@H](C(=O)N)N)C(=O)N[C@@H]([C@H](C2=CN=CN2)OC3C(C(C(C(O3)CO)O)O)OC4C(C(C(C(O4)CO)O)OC(=O)N)O)C(=O)N[C@H](C)[C@H]([C@H](C)C(=O)N[C@@H]([C@@H](C)O)C(=O)NCCC5=NC(=CS5)C6=NC(=CS6)C(=O)NCCC[S+](C)C)O [Bleomycin] + Cc1nc(NC(=O)N2CCC[C@H]2C(N)=O)sc1-c1ccnc(C(C)(C)C(F)(F)F)c1 [Alpelisib] (partner 2 µM); settings: main component drawn
Summary of the method: (§1)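 Values are medians from duplicate plates. Each reflects relative viability, defined as the nuclei count of treated wells over that of vehicle wells. Lung cancer cell lines in 1536-well plates were pin-tool dosed one day after seeding with one drug alone or with a fixed anchor-drug dose plus five library-drug doses (not always all listed) in √10 steps, then fixed, stained and imaged at 4× after 5 days.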

Etoposide + Palbociclib = compound: COc1cc([C@@H]2c3cc4c(cc3[C@@H](O[C@@H]3O[C@@H]5CO[C@@H](C)O[C@H]5[C@H](O)[C@H]3O)[C@H]3COC(=O)[C@H]23)OCO4)cc(OC)c1O [Etoposide] + CC(=O)c1c(C)c2cnc(Nc3ccc(N4CCNCC4)cn3)nc2n(C2CCCC2)c1=O [Palbociclib] (partner 0.5 µM)
Summary of the method: as §1

Etoposide + Bortezomib = compound: COc1cc([C@@H]2c3cc4c(cc3[C@@H](O[C@@H]3O[C@@H]5CO[C@@H](C)O[C@H]5[C@H](O)[C@H]3O)[C@H]3COC(=O)[C@H]23)OCO4)cc(OC)c1O [Etoposide] + CC(C)C[C@H](NC(=O)[C@H](Cc1ccccc1)NC(=O)c1cnccn1)B(O)O [Bortezomib] (partner 0.002 µM)
Summary of the method: as §1

Etoposide + AZD7762 = compound: COc1cc([C@@H]2c3cc4c(cc3[C@@H](O[C@@H]3O[C@@H]5CO[C@@H](C)O[C@H]5[C@H](O)[C@H]3O)[C@H]3COC(=O)[C@H]23)OCO4)cc(OC)c1O [Etoposide] + NC(=O)Nc1cc(-c2cccc(F)c2)sc1C(=O)N[C@H]1CCCNC1 [AZD7762] (partner 0.2 µM)
Summary of the method: as §1

Row | Cell Line | relative viability (Bleomycin + Alpelisib; first compound 0.01 µM) | relative viability (Bleomycin + Alpelisib; first compound 0.03162 µM) | relative viability (Bleomycin + Alpelisib; first compound 0.1 µM) | relative viability (Bleomycin + Alpelisib; first compound 0.3162 µM) | relative viability (Bleomycin + Alpelisib; first compound 1 µM) | relative viability (Etoposide + Palbociclib; first compound 0.01 µM) | relative viability (Etoposide + Palbociclib; first compound 0.03162 µM) | relative viability (Etoposide + Palbociclib; first compound 0.1 µM) | relative viability (Etoposide + Palbociclib; first compound 0.3162 µM) | relative viability (Etoposide + Palbociclib; first compound 1 µM) | relative viability (Etoposide + Bortezomib; first compound 0.01 µM) | relative viability (Etoposide + Bortezomib; first compound 0.03162 µM) | relative viability (Etoposide + Bortezomib; first compound 0.1 µM) | relative viability (Etoposide + Bortezomib; first compound 0.3162 µM) | relative viability (Etoposide + Bortezomib; first compound 1 µM) | relative viability (Etoposide + AZD7762; first compound 0.01 µM) | relative viability (Etoposide + AZD7762; first compound 0.03162 µM) | relative viability (Etoposide + AZD7762; first compound 0.1 µM) | relative viability (Etoposide + AZD7762; first compound 0.3162 µM) | relative viability (Etoposide + AZD7762; first compound 1 µM)
1 | NCI-H2009 | 1.05 | 1.16 | 1.16 | 0.84 | 0.531 | 0.203 | 0.213 | 0.145 | 0.25 | 0.148 | 0.975 | 1.1 | 0.933 | 0.628 | 0.241 |  |  |  |  | 
2 | SW 900 |  |  |  |  |  | 0.585 | 0.503 | 0.593 | 0.492 | 0.263 |  |  |  |  |  | 0.561 | 0.7 | 0.379 | 0.539 | 0.293
3 | IA-LM | 0.514 | 0.614 | 0.565 | 0.372 | 0.246 |  |  |  |  |  | 0.821 | 0.929 | 0.466 | 0.837 | 0.522 |  |  |  |  | 
4 | SW 1573 | 0.643 | 0.64 | 0.596 | 0.302 | 0.342 | 0.363 | 0.349 | 0.288 | 0.16 | 0.109 | 1 | 0.977 | 0.608 | 0.449 | 0.186 |  |  |  |  | 
5 | NCI-H1703 | 0.32 | 0.295 | 0.278 | 0.173 | 0.196 |  |  |  |  |  | 0.433 | 0.519 | 0.294 | 0.22 | 0.198 | 0.149 | 0.126 |  | 0.121 | 0.114
6 | NCI-H1648 |  |  |  |  |  |  | 0.289 | 0.211 | 0.297 | 0.265 |  |  |  |  |  |  | 0.762 | 0.991 | 0.722 | 0.451

Reference: the supplement of paper PMC10307832
